Measurements published in patent US11472807B2, “Purine derivatives for use as medicament and for use in treating neurodegenerative or neuro-inflammatory disorders” (COMMISSARIAT À L'ENERGIE ATOMIQUE ET AUX ENERGIES …, priority 2017, dated 2022).

Key:
[1] = system: IL-10; assay: IL-10 mRNA in OHSC (RT-qPCR); assay type: cell-based, mice; settings: 50 μM, 10 days
Procedure: FIG. 10. Plots illustrating the effect of Aftin-5 on relative mRNA expression levels of interleukin-1-beta (IL-1β; (A)), interleukin-6 (IL-6; (B)), TNF-alpha (TNFα; (C)) and interleukin-10 (IL-10; (D)) in organotypic hippocampal slice cultures (OHSC). OHSC culture media […] were replaced by incubation medium containing Aftin-5 (50 μM; A50) or vehicle (0.1% DMSO; Veh). 10 days later, total mRNA in lysate was isolated and purified, cDNAs were then synthesized from […] of total mRNA. cDNAs were amplified by quantitative RT-PCR and the relative expression of specific genes was normalized to the housekeeping gene HPRT1 (2^−ΔCt). Mann-Whitney tests were performed and ***p<0.001 indicates significant differences between Aftin-5 and control conditions. Data expressed as means+/−SEM from q=3 independent experiments with n=4-6 inserts/condition and 10 slices/insert. […]
The impact of Aftin-5 on gene expression of different biomarkers was determined by measuring mRNA levels of selected BDNF, CREB, PS95, INS Receptor/IGF-1 receptor, IL-1β, IL-6 in OHSC treated chronically with Aftin-5 or in a total brain from mice exposed to Aftin-5 at either 8 or 30 mg/Kg. […] Threshold cycles (Ct) of target gene and cyclophilin A (Ppia−control housekeeping gene) were recorded and gene expression was calculated as 2^−ΔΔCt(ΔΔCt=ΔCttreated−ΔCtcontrol, ΔCt=Cttarget−CtPpia). […]

[2] = system: amyloid precursor protein (APP); assay: APP protein expression in neuronal primary cultures (Western blot); assay type: cell-based; settings: hippocampal neurons, 100 μM, 18 h
Procedure: FIG. 8. Plots illustrating the effect of Aftin-5 on APP protein expression in neuronal primary cultures. Culture medium of hippocampal neurons was replaced by incubation medium containing Aftin-5 (100 μM) or vehicle (0.1% DMSO). 18 h later, APP protein in lysate was quantified by Western blotting with anti-APP polyclonal antibody (Millipore). The Western blots were quantified by densitometric analysis. Relative APP protein expression was expressed (Aftin-5) as comparison with the control condition (vehicle; Ctrl). Data expressed as means+/−SEM from one experiment with n=5 wells/condition.
Hippocampi and cortex were dissected in HBSS containing 5 mM glucose (dissection medium). […] Cells were counted and seeded at a density of 22,000 per cm^2 for hippocampal neurons and 10^5 per cm^2 for cortical neurons into 24 wells culture plates (Costar) in plating medium (DMEM medium containing 10% heat-inactivated horse serum (Life Technologies)). […]
Cells were lysed in freshly prepared lysis buffer containing in mM: Tris-HCl 50, EDTA 2, EGTA 2, NaCl 100, SDS 0.2%, Triton X-100 1%, proteases inhibitors (Roche Protease Inhibitor Cocktail #04693116001), phosphatases inhibitors (in mM: ammonium molybdate 0.1, β-glycerophosphate 20, NaF 50, Na-pyrophosphate 10, Orthovanadate 1). Protein concentration was measured by the Bradford assay and Laemmli buffer was added to each lysate. […]

CC[C@H](CO)Nc1nc(N(C)c2ccccc2)c2ncn(C(C)C)c2n1 [Aftin-5]
IL-10 mRNA synthesis [1]: no changes
level of APP [2]: does not change
